Where a name gives a salt, the structure may show the parent alone.
These molecules were tested against T1, sigma-1 receptor (Homo sapiens, UniProt Q99720) (assay: sigma-1 receptor binding assay ([3H](+)-pentazocine displacement, Jurkat cell membranes)). Conditions: tested compound 10 nM, [3H](+)-pentazocine 15 nM, 37° C., 2 hours.
T1 construct: incubing Jurkat cell membranes ([…] protein per tube) with [^3H](+)-pentazocine; endogenous in cells; host or cells: Jurkat cell membranes
T1 sequence (Q99720 whole entry): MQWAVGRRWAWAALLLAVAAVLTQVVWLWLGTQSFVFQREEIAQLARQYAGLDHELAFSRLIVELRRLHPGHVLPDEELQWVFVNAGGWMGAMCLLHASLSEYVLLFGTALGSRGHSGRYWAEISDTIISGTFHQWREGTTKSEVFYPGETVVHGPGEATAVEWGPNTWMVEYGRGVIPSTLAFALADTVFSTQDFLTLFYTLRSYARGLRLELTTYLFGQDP
Method: The sigma-1 receptor binding assays were performed according to Ganapathy et al. (J Pharmacol Exp Ther 28:251-60, 1999). The sigma-1 receptor binding assay was carried out by incubing Jurkat cell membranes ([…] protein per tube) with [^3H](+)-pentazocine a selective sigma-1 radiotracer (15 nM) and a range of concentration of tested compounds, at 37° C. for 2 hours in 5 mM tris/HCl buffer (pH=7.4). The inhibition of [^3H](+)-pentazocine binding assay is mainly used to determine the inhibition constant (Ki) of potential sigma-1 receptor ligands. These assays are performed with a single concentration of [^3H](+)-pentazocine at a concentration near its KD and increasing concentrations of non-radioactive ligands.
For `O=c1c(-c2ccc(F)cc2)ccnn1CC1CCN(Cc2ccccc2)CC1` [cpd 35, 2-((1-benzylpiperidin-4-yl)methyl)-4-(4-fluorophenyl)pyridazin-3(2H)-one hydrochloride], the inhibition at 0.01 µM was 44.6%. For `Cl.O=c1c(-c2ccccc2)ccnn1C1CCN(CC2CCCC2)CC1` [cpd 5, 2-[1-(cyclopentylmethyl)piperidin-4-yl]-4-phenyl-2,3-dihydropyridazin-3-one hydro-chloride], the “sigma-1 receptor % inhibition 10 nM” value was 60.7%. In the case of `O=c1c(-c2ccccc2)ccnn1CCC1CCN(Cc2ccccc2)CC1` [cpd 26, 2-(2-(1-benzylpiperidin-4-yl)ethyl)-4-phenylpyridazin-3(2H)-one hydrochloride], the inhibition at 0.01 µM is reported as 80.9%. `O=c1cc(-c2ccccc2)cnn1CC1CCN(Cc2ccccc2)CC1` [cpd 8, 2-((1-benzylpiperidin-4-yl)methyl)-5-phenylpyridazin-3(2H)-one hydrochloride] gave an inhibition at 0.01 µM of 31.5%. `O=c1c(N2CCOCC2)ccnn1CC1CCN(Cc2ccccc2)CC1` [cpd 40, 2-((1-benzylpiperidin-4-yl)methyl)-4-morpholinopyridazin-3(2H)-one hydrochloride] was tested, and the inhibition at 0.01 µM was 8.2%. In the case of `O=c1c(-c2ccccc2)ccnn1CC1CCN(Cc2ccc(O)cc2)CC1` [cpd 18, 2-((1-(4-hydroxybenzyl)piperidin-4-yl)methyl)-4-phenylpyridazin-3(2H)-one hydrochloride], the inhibition at 0.01 µM is reported as 16.7%. `O=c1cc(-c2ccccc2)cnn1CCC1CCN(Cc2ccccc2)CC1` [cpd 27, 2-(2-(1-benzylpiperidin-4-yl)ethyl)-5-phenylpyridazin-3(2H)-one hydrochloride] gave an inhibition at 0.01 µM of 61.7%. Work on `O=c1c(-c2ccccc2)ccnn1C1CCN(CCc2ccccc2)CC1` [cpd 3, 4-phenyl-2-[1-(2-phenylethyl)piperidin-4-yl]-2,3-dihydropyridazin-3-one hydrochloride] yielded an inhibition at 0.01 µM of 41.9%. In the case of `O=c1c(-c2ccccc2)ccnn1CC1CCN(CC2CCCCC2)CC1` [cpd 13, 2-((1-(cyclohexylmethyl)piperidin-4-yl)methyl)-4-phenylpyridazin-3(2H)-one hydrochloride], the inhibition at 0.01 µM is reported as 59.3%. `O=c1c(-c2ccccc2)ccnn1CC1(O)CCN(Cc2ccccc2)CC1` [cpd 29, 2-((1-benzyl-4-hydroxypiperidin-4-yl)methyl)-4-phenylpyridazin-3(2H)-one hydrochloride] showed an inhibition at 0.01 µM of 10.6%. `O=c1c(-c2ccccc2)ccnn1CC1CCN(CC(O)c2ccccc2)CC1` (centres unmarked) [cpd 25, 2-((1-(2-hydroxy-2-phenylethyl)piperidin-4-yl)methyl)-4-phenylpyridazin-3(2H)-one hydrochloride] was tested, and the inhibition at 0.01 µM was 15.3%. `O=c1c(-c2ccccc2)ccnn1CC1CCN(CCc2ccccc2)CC1` [cpd 10, 2-((1-phenethylpiperidin-4-yl)methyl)-4-phenylpyridazin-3(2H)-one hydrochloride] gave an inhibition at 0.01 µM of 29.2%. `O=c1cc(-c2ccccc2)cnn1C1CCN(Cc2ccccc2)CC1` [cpd 2, 2-(1-benzylpiperidin-4-yl)-5-phenylpyridazin-3(2H)-one hydrochloride] showed an inhibition at 0.01 µM of 86%. For `O=c1c(-c2ccccc2)ccnn1C1CCN(Cc2ccccc2)CC1` [cpd 1, 2-(1-benzylpiperidin-4-yl)-4-phenylpyridazin-3(2H)-one hydrochloride], the inhibition at 0.01 µM was 59.9%. With `O=c1c(N2CCc3ccccc3C2)ccnn1CC1CCN(Cc2ccccc2)CC1` [cpd 42, 2-((1-benzylpiperidin-4-yl)methyl)-4-(3,4-dihydroisoquinolin-2(1H)-yl)pyridazin-3(2H)-one hydrochloride] the inhibition at 0.01 µM was 25.4%. `O=C(CN1CCC(Cn2nccc(-c3ccccc3)c2=O)CC1)c1ccc(F)cc1` [cpd 24, 2-((1-(2-(4-fluorophenyl)-2-oxoethyl)piperidin-4-yl)methyl)-4-phenylpyridazin-3(2H)-one hydrochloride] gave an inhibition at 0.01 µM of 6.2%. `Cl.O=c1c(N2CCCCC2)ccnn1CC1CCN(Cc2ccccc2)CC1` [cpd 39, 2-[(1-benzylpiperidin-4-yl)methyl]-4-(piperidin-1-yl)-2,3-dihydropyridazin-3-one hydro-chloride] was tested, and the “sigma-1 receptor % inhibition 10 nM” value was 51.8%. With `O=c1c(-c2ccccc2)cccn1C1CCN(Cc2ccccc2)CC1` [cpd 44, 1-(1-benzylpiperidin-4-yl)-3-phenyl-1,2-dihydropyridin-2-one hydrochloride] the inhibition at 0.01 µM was 29.6%. Work on `O=c1c(-c2ccccc2)ccnn1CC1CCCN(Cc2ccccc2)C1` (centres unmarked) [cpd 9, 2-[(1-benzylpiperidin-3-yl)methyl]-4-phenyl-2,3-dihydropyridazin-3-one hydrochloride] yielded an inhibition at 0.01 µM of 38.8%. `O=c1c(CCc2ccccc2)ccnn1C1CCN(Cc2ccccc2)CC1` [cpd 37, 2-(1-benzylpiperidin-4-yl)-4-(2-phenylethyl)-2,3-dihydropyridazin-3-one hydrochloride] showed an inhibition at 0.01 µM of 90%. For `Cl.Cl.O=c1c(-c2ccccc2)ccnn1CC1CCN(Cc2cnc[nH]2)CC1` [cpd 16, 2-{[1-(1H-imidazol-5-ylmethyl)piperidin-4-yl]methyl}-4-phenyl-2,3-dihydropyridazin-3-one dihydro-chloride], the “sigma-1 receptor % inhibition 10 nM” value was 3.8%. `O=c1c(-c2ccccc2Cl)ccnn1CC1CCN(Cc2ccccc2)CC1` [cpd 33, 2-[(1-benzylpiperidin-4-yl)methyl]-4-(2-chlorophenyl)-2,3-dihydropyridazin-3-one hydrochloride] showed an inhibition at 0.01 µM of 51.2%. Work on `O=c1c(-c2ccccc2)ccnn1C1CCN(CC2CC2)CC1` [cpd 4, 2-[1-(cyclopropylmethyl)piperidin-4-yl]-4-phenyl-2,3-dihydropyridazin-3-one hydrochloride] yielded an inhibition at 0.01 µM of 13.5%. Work on `O=c1c(-c2ccccc2)ccnn1C1CCCN(Cc2ccccc2)CC1` (centres unmarked) [cpd 6, 2-(1-benzylazepan-4-yl)-4-phenyl-2,3-dihydropyridazin-3-one hydrochloride] yielded an inhibition at 0.01 µM of 81.4%. With `O=c1c(CCc2ccccc2)ccnn1CC1CCN(Cc2ccccc2)CC1` [cpd 36, 2-((1-benzylpiperidin-4-yl)methyl)-4-phenethylpyridazin-3(2H)-one] the inhibition at 0.01 µM was 44.2%. With `O=c1c(-c2ccccc2)cncn1CC1CCN(Cc2ccccc2)CC1` [cpd 45, 3-((1-benzylpiperidin-4-yl)methyl)-5-phenylpyrimidin-4(3H)-one] the inhibition at 0.01 µM was 75.7%. `O=c1c(-c2ccccc2)ccnn1CC1CCN(Cc2ccc(Cl)cc2)CC1` [cpd 12, 2-((1-(4-chlorobenzyl)piperidin-4-yl)methyl)-4-phenylpyridazin-3(2H)-one hydrochloride] gave an inhibition at 0.01 µM of 73.1%. For `O=c1c(-c2ccccc2)ccnn1CC1CCN(CCO)CC1` [cpd 20, 2-((1-(2-hydroxyethyl)piperidin-4-yl)methyl)-4-phenylpyridazin-3(2H)-one hydrochloride], the inhibition at 0.01 µM was 18.9%. `O=c1c(-c2ccccc2)ccnn1CC1CCN(CC(O)c2ccc(F)cc2)CC1` (centres unmarked) [cpd 23, 2-((1-(2-(4-fluorophenyl)-2-hydroxyethyl)piperidin-4-yl)methyl)-4-phenylpyridazin-3(2H)-one hydrochloride] gave an inhibition at 0.01 µM of 1.3%. For `O=c1c(-c2ccccc2)cccn1CC1CCN(Cc2ccccc2)CC1` [cpd 46, 1-[(1-benzylpiperidin-4-yl)methyl]-3-phenyl-1,2-dihydropyridin-2-one hydrochloride], the inhibition at 0.01 µM was 75.6%. For `O=c1c(N2CCN(c3ccccc3)CC2)ccnn1CC1CCN(Cc2ccccc2)CC1` [cpd 41, 2-((1-benzylpiperidin-4-yl)methyl)-4-(4-phenylpiperazin-1-yl)pyridazin-3(2H)-one hydrochloride], the inhibition at 0.01 µM was 5.2%. Molecule `O=c1c(-c2ccccc2)ccnn1CC1CCN(Cc2ccncc2)CC1` [cpd 14, 4-phenyl-2-((1-(pyridin-4-ylmethyl)piperidin-4-yl)methyl)pyridazin-3(2H)-one hydrochloride] has an inhibition at 0.01 µM of 16.4%. `CCCN1CCC(Cn2nccc(-c3ccccc3)c2=O)CC1` [cpd 11, 4-phenyl-2-((1-propylpiperidin-4-yl)methyl)pyridazin-3(2H)-one hydrochloride] gave an inhibition at 0.01 µM of 3.9%. Work on `O=c1c(-c2ccccc2)ccnn1CC1CCN(CC2CCOCC2)CC1` [cpd 15, 4-phenyl-2-((1-((tetrahydro-2H-pyran-4-yl)methyl)piperidin-4-yl)methyl)pyridazin-3(2H)-one dihydrochloride] yielded an inhibition at 0.01 µM of 19.3%. `O=c1c(N2CCCCC2)ccnn1C1CCN(Cc2ccccc2)CC1` [cpd 38, 2-(1-benzylpiperidin-4-yl)-4-(piperidin-1-yl)-2,3-dihydropyridazin-3-one hydrochloride] was tested, and the inhibition at 0.01 µM was 52.3%. With `CC(C1CCN(Cc2ccccc2)CC1)n1nccc(-c2ccccc2)c1=O` (centres unmarked) [cpd 28, 2-(1-(1-benzylpiperidin-4-yl)ethyl)-4-phenylpyridazin-3(2H)-one hydro chloride] the inhibition at 0.01 µM was 37%.

Same assay, conditions: tested compound 100 nM, [3H](+)-pentazocine 15 nM, 37° C., 2 hours
`O=c1c(-c2ccccc2)ccnn1CCC1CCN(Cc2ccccc2)CC1` [cpd 26, 2-(2-(1-benzylpiperidin-4-yl)ethyl)-4-phenylpyridazin-3(2H)-one hydrochloride] was tested, and the inhibition at 0.1 µM was 95%. For `COc1ccc(-c2ccnn(C3CCN(Cc4ccccc4)CC3)c2=O)cc1` [cpd 30, 2-(1-benzylpiperidin-4-yl)-4-(4-methoxyphenyl)pyridazin-3(2H)-one hydrochloride], the inhibition at 0.1 µM was 75.8%. Molecule `O=c1c(-c2ccc(C(F)(F)F)cc2)ccnn1C1CCN(Cc2ccccc2)CC1` [cpd 31, 2-(1-benzylpiperidin-4-yl)-4-[4-(trifluoromethyl)phenyl]-2,3-dihydropyridazin-3-one hydro chloride] has an inhibition at 0.1 µM of 80%. `O=c1cc(-c2ccccc2)cnn1C1CCN(Cc2ccccc2)CC1` [cpd 2, 2-(1-benzylpiperidin-4-yl)-5-phenylpyridazin-3(2H)-one hydrochloride] was tested, and the inhibition at 0.1 µM was 90%. Work on `O=c1c(-c2ccccc2)ccnn1C1CCN(Cc2ccccc2)CC1` [cpd 1, 2-(1-benzylpiperidin-4-yl)-4-phenylpyridazin-3(2H)-one hydrochloride] yielded an inhibition at 0.1 µM of 97.1%. For `O=c1c(CCc2ccccc2)ccnn1C1CCN(Cc2ccccc2)CC1` [cpd 37, 2-(1-benzylpiperidin-4-yl)-4-(2-phenylethyl)-2,3-dihydropyridazin-3-one hydrochloride], the inhibition at 0.1 µM was 100%. In the case of `Cl.O=c1c(-c2ccc(Cl)cc2)ccnn1C1CCN(Cc2ccccc2)CC1` [cpd 32], the “sigma-1 receptor % inhibition 100 nM” value is reported as 91.1%. `O=c1c(N2CCCCC2)ccnn1C1CCN(Cc2ccccc2)CC1` [cpd 38, 2-(1-benzylpiperidin-4-yl)-4-(piperidin-1-yl)-2,3-dihydropyridazin-3-one hydrochloride] was tested, and the inhibition at 0.1 µM was 90%.

Source: patent publication US20230049619A1, “SIGMA-1 RECEPTOR LIGANDS AND USES THEREOF” (UNIVERSITE DE STRASBOURG, priority 2019, published 2023)
